Reference: patent publication US6710080B2, “Substituted 2-dialkylaminoalkylbiphenyl derivatives” (Gruenenthal GmbH, priority 1999, dated 2004)
Where a name gives a salt, the structure may show the parent alone.

Tests used:
[1] = system: phenylquinone-induced writhing in mice; assay: Writhing test in mice; assay type: in vivo; settings: Mus musculus, male NMRI mice; for inhibition at 10 mg/kg: 10 mg/kg intravenously 10 minutes before phenylquinone i.p., writhing counted 5-20 minutes after phenylquinone, read-out: % Inhibition of the writhing reaction with 10 mg/kg intravenously; for ED50: iv, intravenously, regression analysis of dose-dependent decrease in writhing reactions
Procedure: The analgesic activity was investigated on phenylquinone-induced writhing in mice (modified by I. C. Hendershot, J. Forsaith, J. Pharmacol. Exp. Ther. 125, 237-240 (1959)). Male NMRI mice weighing 25-30 g were used for this. Groups of 10 animals per dose of substance received 0.3 ml/mouse of a 0.02% aqueous solution of phenylquinone (phenylbenzoquinone, Sigma, Deisenhofen; preparation of the solution with addition of 5% ethanol and storage in a water bath at 45° C.) as an intraperitoneal administration 10 minutes after intravenous administration of the test substances. The animals were placed individually in observation cages. The number of pain-induced extension movements (so-called writhing reactions=straightening of the body with stretching out of the hind extremities) 5-20 minutes after the administration of phenylquinone was counted by means of a push-button counter. Animals which receive only physiological saline solution were also run as a control. All the substances were tested in the standard dosage of 10 mg/kg. The percentage inhibition (% inhibition) of the writhing reaction by a substance was calculated in accordance with the following equation: [formula]
For some substances, the ED50 values with 95% confidence limits of the writhing reaction were calculated from the dose-dependent decrease in the writhing reactions compared with phenylquinone control groups investigated in parallel by means of regression analysis (evaluation program of Martens EDV Service, Eckental Germany).

| melting point [°C] | Structure (SMILES) | inhibition at 10 mg/kg [1] [%] | ED50 [1] [mg/kg] |
| --- | --- | --- | --- |
|  | COc1ccc(-c2ccccc2CCN(C)C)cc1OC [Example 33, [2-(3′,4′-Dimethoxybiphenyl-2-yl)ethyl]dimethylamine hydrochloride] | 89 |  |
|  | CN(C)Cc1ccccc1-c1cc(Cl)c(N)c(Cl)c1 [Example 43, 3,5-Dichloro-2′-dimethylaminomethyl-biphenyl-4-ylamine hydrochloride] | 99 |  |
|  | COc1ccccc1-c1ccccc1CN(C)C.Cl [Example 4, (2′-Methoxybiphenyl-2-ylmethyl)dimethylamine hydrochloride] | 75 | 3.95 |
|  | CN(C)CCc1ccccc1-c1ccc(Cl)c(O)c1 [Example 36, 4-Chloro-2′-(2-dimethylaminoethyl)biphenyl-3-ol hydrochloride] | 93 |  |
|  | COc1cccc(-c2ccccc2CCN(C)C)c1.Cl [Example 10, (3′-Methoxybiphenyl-2-ylethyl)dimethylamine hydrochloride] | 100 | 1.7 |
|  | CC(C)Oc1cccc(-c2ccccc2CN(C)C)c1 [Example 23, (3′-Isopropoxybiphenyl-2-ylmethyl)dimethylamine hydrochloride] | 97 |  |
|  | CN(C)Cc1ccccc1-c1ccc(F)cc1.Cl [Example 8, (4′-Fluorobiphenyl-2-ylmethyl)dimethylamine hydrochloride] | 67 | 7.15 |
|  | CN(C)CCc1ccccc1-c1cccc(O)c1.Cl [Example 24, 2′-(2-Dimethylaminoethyl)biphenyl-3-ol hydrochloride] | 99 | 2.27 |
|  | CN(C)Cc1ccccc1-c1cccc([N+](=O)[O-])c1 [Example 37, Dimethyl-(3′-nitrobiphenyl-2-ylmethyl)amine hydrochloride] | 60 |  |
|  | CN(C)Cc1ccccc1-c1ccc2c(c1)OCO2 [Example 31, (2-Benzo [1,3]dioxol-5-ylbenzyl)dimethylamine hydrochloride] | 94 |  |
|  | CN(C)Cc1ccccc1-c1cc(OC(F)(F)F)ccc1N [Example 41, 2′-Dimethylaminomethyl-5-trifluoromethoxybiphenyl-2-ylamine dihydrochloride] | 56 |  |
|  | CN(C)Cc1ccccc1-c1ccc(F)c(Cl)c1.Cl [Example 9, (3′-Chloro-4′-fluorobiphenyl-2-ylmethyl)dimethylamine hydrochloride] | 89 | 2.32 |
|  | CN(C)Cc1ccccc1-c1cc(F)cc(F)c1 [Example 39, (3′,5′-Difluorobiphenyl-2-ylmethyl)dimethylamine hydrochloride] | 80 |  |
|  | CN(C)Cc1ccccc1-c1ccc(Cl)cc1.Cl [Example 2, (4′-Chlorobiphenyl-2-ylmethyl)dimethylamine hydrochloride] | 89 | 4.55 |
|  | CN(C)Cc1ccccc1-c1cccc(F)c1F.Cl [Example 29, (2′,3′-Difluorobiphenyl-2-ylmethyl)dimethylamine hydrochloride] | 83 | 5.71 |
|  | CN(C)Cc1ccccc1-c1ccc(F)c(C(F)(F)F)c1.Cl [Example 20, (4′-Fluoro-3′-trifluoromethylbiphenyl-2-ylmethyl)dimethyl-amine hydrochloride] | 83 | 4.99 |
|  | CC(C)Oc1cccc(-c2ccccc2CCN(C)C)c1 [Example 34, [2-(3′-Isopropoxybiphenyl-2-yl)ethyl]dimethylamine hydrochloride] | 80 |  |
|  | CN(C)Cc1ccccc1-c1ccccc1F.Cl [Example 6, (2′-Fluorobiphenyl-2-ylmethyl)dimethylamine hydrochloride] | 88 | 4.26 |
|  | CN(C)Cc1ccccc1-c1cc(F)ccc1F [Example 30, (2′,5′-Difluorobiphenyl-2-ylmethyl)dimethylamine hydrochloride] | 89 |  |
|  | COc1cccc(-c2ccccc2CN(C)C)c1 [Example 1, (3′-Methoxybiphenyl-2-ylmethyl)dimethylamine hydrochloride] | 53 |  |
|  | CN(C)Cc1ccccc1-c1ccc(F)c(F)c1 [Example 19, (3′,4′-Difluorobiphenyl-2-ylmethyl)dimethylamine hydrochloride] | 86 |  |
|  | COc1cc(-c2ccccc2CCN(C)C)ccc1Cl [Example 35, [2-(4′-Chloro-3′-methoxybiphenyl-2-yl)ethyl]dimethylamine hydrochloride] | 88 |  |

| melting point [°C] | Structure (SMILES) | inhibition at 10 mg/kg [1] [%] | ED50 [1] [mg/kg] |
| --- | --- | --- | --- |
|  | CN(C)Cc1ccccc1-c1ccc(Cl)c(O)c1 [Example 25, 4-Chloro-2′-dimethylaminomethylbiphenyl-3-ol hydrochloride] | 74 |  |
|  | CN(C)Cc1ccccc1-c1cccc(C(F)F)c1.Cl [Example 13, (3′-Difluoromethylbiphenyl-2-ylmethyl)dimethylamine hydrochloride] | 81 | 5.3 |
|  | CN(C)Cc1ccccc1-c1ccc(Cl)cc1Cl [Example 28, (2′,4′-Dichlorobiphenyl-2-ylmethyl)dimethylamine hydrochloride] | 90 |  |
|  | COc1ccc(OC)c(-c2ccccc2CN(C)C)c1 [Example 40, (2′,5′-Dimethoxybiphenyl-2-ylmethyl)dimethylamine hydrochloride] | 57 |  |
|  | COc1cc(-c2ccccc2CN(C)C)ccc1Cl.Cl [Example 21, (4′-Chloro-3′-methoxybiphenyl-2-ylmethyl)dimethylamine hydrochloride] | 53 | 6.78 |
|  | CN(C)Cc1ccccc1-c1ccc(N)c(O)c1 [Example 38, 4-Amino-2′-dimethylaminomethylbiphenyl-3-ol dihydrochloride] | 65 |  |
|  | CN(C)Cc1ccccc1-c1cc(Cl)cc(Cl)c1 [Example 17, (3′,5′-Dichlorobiphenyl-2-ylmethyl)dimethylamine hydrochloride] | 90 |  |
|  | CN(C)Cc1ccccc1-c1cccc(O)c1.Cl [Example 3, 2′-Dimethylaminomethylbiphenyl-3-ol hydrochloride] | 100 | 0.24 |
|  | CN(C)Cc1ccccc1-c1cccc(Cl)c1.Cl [Example 5, (3′-Chlorobiphenyl-2-ylmethyl)dimethylamine hydrochloride] | 68 | 4.31 |
| 182 | CC(=O)Nc1ccc(-c2ccccc2CN(C)C)cc1OC(F)(F)F.Cl [Example 22, N-(2′-Dimethylaminomethyl-3-trifluoromethoxybiphenyl-4-yl)acetamide hydrochloride] | 76 | 6.05 |
|  | Cc1cc2c(-c3ccccc3CN(C)C)cccc2o1 [Example 11, Dimethyl-[2-(2-methylbenzofuran-4-yl)benzyl]amine hydrochloride] | 74 |  |
|  | CC(=O)Nc1ccc(OC(F)(F)F)cc1-c1ccccc1CN(C)C [Example 42, N-(2′-Dimethylaminomethyl-5-trifluoromethoxybiphenyl-2-yl)acetamide hydrochloride] | 44 |  |
|  | CC(=O)c1cccc(-c2ccccc2CCN(C)C)c1 [Example 32, 1-[2′-(2-Dimethylaminoethyl)biphenyl-3-yl]ethanone hydrochloride] | 98 |  |
|  | CN(C)Cc1ccccc1-c1ccccc1.Cl [Example 15, biphenyl-2-ylmethyldimethylamine hydrochloride] | 52 | 3.66 |
|  | CN(C)Cc1ccccc1-c1ccccc1C=O.Cl [Example 12, 2′-Dimethylaminomethylbiphenyl-2-carbaldehyde hydrochloride] | 89 | 1.74 |
|  | CN(C)Cc1ccccc1-c1ccc([N+](=O)[O-])c(C(F)(F)F)c1 [Example 18, Dimethyl-(4′-nitro-3′-trifluoromethylbiphenyl-2-ylmethyl)amine hydrochloride] | 83 |  |
|  | CN(C)Cc1ccccc1-c1ccc2[nH]ccc2c1 [Example 26, [2-(1H-Indol-5-yl)benzyl]dimethylamine] | 100 | 0.75 |
|  | CN(C)Cc1ccccc1-c1ccc(Cl)c(Cl)c1.Cl [Example 16, (3′,4′-Dichlorobiphenyl-2-ylmethyl)dimethylamine hydrochloride] | 89 | 4.59 |
|  | CN(C)Cc1ccccc1-c1cccc(C=O)c1.Cl [Example 14, 2′-Dimethylaminomethylbiphenyl-3-carbaldehyde hydrochloride] | 100 | 2.28 |
|  | CN(C)Cc1ccccc1-c1ccc(S(C)(=O)=O)cc1 [Example 27, (4′-Methanesulfonylbiphenyl-2-ylmethyl)dimethylamine hydrochloride] | 89 |  |
|  | CN(C)Cc1ccccc1-c1cccc(F)c1.Cl [Example 7, (3′-Fluorobiphenyl-2-ylmethyl)dimethylamine hydrochloride] | 90 | 2.55 |
